How the values were obtained:
[1] = test system: carrageenan-induced paw edema; assay: carrageenan-induced paw edema technique (anti-inflammatory); assay type: in vivo; conditions: for Observed (1/property): 1/(% inhibition of edema thickness at 3 h effect); for Observed (1/property): test concentration or dose not given here; for Potency (% Inhibition relative to indomethacin at 3 h effect): test concentration or dose not given here
Excerpt: Anti-inflammatory properties of the ibuprofen-amino acid conjugate (5a-j) and ibuprofen-amino acid-4-aminophenol conjugates 7a-j were studied by the standard carrageenan-induced paw edema technique (Naumov, R. N. et al., Bioorg. Med. Chem. Lett. 2015, 25, 2314-2320; Tiwari, A. D. et al., Org. Biomol. Chem. 2014, 12, 7238-7249).

[2] = test system: animal gastric mucosa; assay: ulcerogenic liability; assay type: in vivo; conditions: in vivo
[3] = test system: acetic acid-induced abdominal writhing; assay: acetic acid-induced abdominal writhing technique (peripheral analgesic); assay type: in vivo; conditions: for Potency: Relative to indomethacin; for % Inhibition/protection / Writing reflex ± SEM: in vivo; for % Inhibition/protection: test concentration or dose not given here; for Writing reflex ± SEM: test concentration or dose not given here
[4] = test system: hot plate; assay: hot plate technique (central analgesic); assay type: in vivo; conditions: for Potency: Relative to indomethacin at 120 min.
[5] = target: COX-1 (Homo sapiens, UniProt P23219); assay: COX-1/2 bio-assay: COX-1; assay type: biochemical; conditions: read-out: IC50 ± SD, COX-1
Excerpt: (§1) Cyclooxygenases (COX) are the key enzymes capable of the conversion of arachidonic acid to prostaglandins.

[6] = target: T1, COX-2 (Homo sapiens, UniProt P35354); assay: COX-1/2 bio-assay: COX-2; assay type: biochemical; conditions: for IC50: read-out: IC50 ± SD, COX-2; for SI(COX-2/COX-1): selectivity index COX-2/COX-1
T1 sequence (P35354 18-604): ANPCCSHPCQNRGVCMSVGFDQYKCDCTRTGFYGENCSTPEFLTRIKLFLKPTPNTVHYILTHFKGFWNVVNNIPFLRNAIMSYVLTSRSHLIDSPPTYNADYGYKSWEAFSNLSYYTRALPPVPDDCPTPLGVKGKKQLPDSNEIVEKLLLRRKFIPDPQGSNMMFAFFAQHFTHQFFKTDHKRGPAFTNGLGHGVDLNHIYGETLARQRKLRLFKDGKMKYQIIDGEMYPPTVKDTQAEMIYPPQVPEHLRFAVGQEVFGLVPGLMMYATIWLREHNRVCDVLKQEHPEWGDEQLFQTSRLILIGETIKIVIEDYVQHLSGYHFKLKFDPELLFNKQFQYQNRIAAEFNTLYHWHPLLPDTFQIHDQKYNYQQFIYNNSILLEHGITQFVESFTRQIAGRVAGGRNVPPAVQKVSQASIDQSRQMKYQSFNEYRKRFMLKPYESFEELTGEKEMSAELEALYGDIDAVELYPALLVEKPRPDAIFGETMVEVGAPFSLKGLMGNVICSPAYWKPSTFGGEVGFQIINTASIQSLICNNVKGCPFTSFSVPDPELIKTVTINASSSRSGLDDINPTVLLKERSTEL
Excerpt: as §1

[7] = % inhibition of edema thickness at 3 h effect, Table 7
[8] = anti-inflammatory property (% inhibition of edema at 3 h), Table 8

COX-1, sequence (P23219 24-599): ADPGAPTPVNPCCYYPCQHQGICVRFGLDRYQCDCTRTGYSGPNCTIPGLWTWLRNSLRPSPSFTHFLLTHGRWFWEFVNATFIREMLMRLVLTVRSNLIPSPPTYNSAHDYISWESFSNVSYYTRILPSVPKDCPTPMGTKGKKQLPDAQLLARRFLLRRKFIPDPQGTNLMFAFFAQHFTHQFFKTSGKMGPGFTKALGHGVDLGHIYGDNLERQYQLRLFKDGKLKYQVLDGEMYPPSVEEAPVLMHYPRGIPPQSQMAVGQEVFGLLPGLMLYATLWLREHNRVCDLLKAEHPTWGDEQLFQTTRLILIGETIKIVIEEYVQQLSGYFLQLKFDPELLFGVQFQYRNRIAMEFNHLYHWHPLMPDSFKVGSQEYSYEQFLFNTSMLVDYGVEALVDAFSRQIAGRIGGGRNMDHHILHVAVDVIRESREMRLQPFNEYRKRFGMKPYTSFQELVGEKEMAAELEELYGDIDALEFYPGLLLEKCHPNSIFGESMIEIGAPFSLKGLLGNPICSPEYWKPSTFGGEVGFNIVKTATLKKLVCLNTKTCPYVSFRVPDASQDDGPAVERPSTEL

Compound	Observed (1/property) ([1]; Table 7)	% inhibition of edema ([1]; 1 h) [%]	Mean edema thickness ([1]; 1 h) [mm]	% inhibition of edema ([1]; 2 h) [%]	Mean edema thickness ([1]; 2 h) [mm]	% inhibition of edema ([1]; 3 h) [%]	Mean edema thickness ([1]; 3 h) [mm]	% inhibition of edema ([1]; 4 h) [%]	Mean edema thickness ([1]; 4 h) [mm]	% inhibition of edema ([1]; 24 h) [%]	Mean edema thickness ([1]; 24 h) [mm]	Observed property [1, 7] [%]	Observed property [1, 8] [%]	Potency (% Inhibition relative to indomethacin at 3 h effect) [1] [%]	Potency [3]	% Inhibition/protection [3] [%]	Writing reflex ± SEM [3]	% protection ([4]; After 30 min.)	Latency period ± SEM ([4]; After 30 min.) [s]	% protection ([4]; After 60 min.)	also measured
CC(C)Cc1ccc(C(C)C(=O)N[C@H](C(=O)Nc2ccc(O)cc2)C(C)C)cc1 (stereo partly drawn) [Compound 7h, (2S)-N-(4-Hydroxyphenyl)-2-(2-(4-isobutylphenyl)propanamido)-3-methylbutanamide]	0.01333	11	1.09 ± 0.06	54	0.69 ± 0.05	75	0.32 ± 0.03	48	0.65 ± 0.04	21	0.15 ± 0.03	75	75	94	137	75.3	24.0 ± 0.4	(58.3) %	3.83 ± 0.02	(62.3) %	% Incidence of ulcer divided by 10 [2]: 0; Average of ulcer number [2]: 0; Average severity of ulcer [2]: 0; Number of animals with ulcer [2]: 0; Ulcer index [2]: 0; Latency period ± SEM ([4]; After 60 min.): 3.62 ± 0.03 s; % protection ([4]; After 90 min.): (58.6) %; Latency period ± SEM ([4]; After 90 min.): 3.49 ± 0.18 s; % protection ([4]; After 120 min.): (50.7) %; Latency period ± SEM ([4]; After 120 min.): 3.30 ± 0.02 s; Potency [4]: 90; IC50 [5]: 10.4 ± 0.51 µM; IC50 [6]: 133 ± 9.4 µM; SI(COX-2/COX-1) [6]: 12.8; melting point: 202.2 °C
CC(C)Cc1ccc(C(C)C(=O)NCCCC(=O)Nc2ccc(O)cc2)cc1 (centres unmarked) [Compound 7d, N-(4-Hydroxyphenyl)-4-(2-(4-isobutylphenyl)propanamido)butanamide]	0.01515	13	1.07 ± 0.06	25	1.14 ± 0.04	66	0.44 ± 0.03	13	1.09 ± 0.04	53	0.09 ± 0.01	66	66	83	77	42.1	56.3 ± 0.7	(49.2) %	3.61 ± 0.05	(27.8) %	Latency period ± SEM ([4]; After 60 min.): 2.85 ± 0.04 s; % protection ([4]; After 90 min.): (15.0) %; Latency period ± SEM ([4]; After 90 min.): 2.53 ± 0.02 s; % protection ([4]; After 120 min.): (12.3) %; Latency period ± SEM ([4]; After 120 min.): 2.46 ± 0.09 s; Potency [4]: 22; melting point: 140.6 °C
CC(C)Cc1ccc(C(C)C(=O)NCCC(=O)Nc2ccc(O)cc2)cc1 (centres unmarked) [Compound 7c, N-(4-Hydroxyphenyl)-3-(2-(4-isobutylphenyl)propanamido)propanamide]	0.01493	35	0.80 ± 0.03	58	0.63 ± 0.03	67	0.43 ± 0.02	70	0.38 ± 0.01	0	0.19 ± 0.02	67	67	84	115	63.0	36.0 ± 1.3	(58.3) %	3.83 ± 0.03	(53.4) %	Latency period ± SEM ([4]; After 60 min.): 3.42 ± 0.12 s; % protection ([4]; After 90 min.): (52.7) %; Latency period ± SEM ([4]; After 90 min.): 3.36 ± 0.15 s; % protection ([4]; After 120 min.): (52.1) %; Latency period ± SEM ([4]; After 120 min.): 3.33 ± 0.11 s; Potency [4]: 92; melting point: 155.5 °C
CC(C)Cc1ccc(C(C)C(=O)N[C@@H](CCC(N)=O)C(=O)Nc2ccc(O)cc2)cc1 (stereo partly drawn) [Compound 7j, (2S)—N1-(4-Hydroxyphenyl)-2-(2-(4-isobutylphenyl)propanamido)pentanediamide]	0.01282	55	0.55 ± 0.04	71	0.44 ± 0.02	78	0.28 ± 0.01	47	0.66 ± 0.03	32	0.13 ± 0.03	78	78	98	34	18.8	79.0 ± 1.8	(60.7) %	3.89 ± 0.03	(64.6) %	% Incidence of ulcer divided by 10 [2]: 0; Average of ulcer number [2]: 0; Average severity of ulcer [2]: 0; Number of animals with ulcer [2]: 0; Ulcer index [2]: 0; Latency period ± SEM ([4]; After 60 min.): 3.67 ± 0.02 s; % protection ([4]; After 90 min.): (74.5) %; Latency period ± SEM ([4]; After 90 min.): 3.84 ± 0.15 s; % protection ([4]; After 120 min.): (124.7) %; Latency period ± SEM ([4]; After 120 min.): 4.92 ± 0.07 s; Potency [4]: 220; IC50 [5]: 8.29 ± 0.41 µM; IC50 [6]: 116 ± 8.23 µM; SI(COX-2/COX-1) [6]: 14.0
CC(C)Cc1ccc(C(C)C(=O)N[C@@H](CCC(N)=O)C(=O)O)cc1 (stereo partly drawn) [Compound 5j, (2-(4-Isobutylphenyl)propanoyl)-L-glutamine]	0.01389	25	0.92 ± 0.05	45	0.83 ± 0.04	72	0.36 ± 0.02	8	1.15 ± 0.06	47	0.10 ± 0.03	72	72	90	3	1.6	95.7 ± 2.4	(22.3) %	2.96 ± 0.02	(25.1) %	% Incidence of ulcer divided by 10 [2]: 0; Average of ulcer number [2]: 0; Average severity of ulcer [2]: 0; Number of animals with ulcer [2]: 0; Ulcer index [2]: 0; Latency period ± SEM ([4]; After 60 min.): 2.79 ± 0.03 s; % protection ([4]; After 90 min.): (45.5) %; Latency period ± SEM ([4]; After 90 min.): 3.20 ± 0.04 s; % protection ([4]; After 120 min.): (46.1) %; Latency period ± SEM ([4]; After 120 min.): 3.20 ± 0.03 s; Potency [4]: 81; melting point: 67.4 °C

Reference: patent US11850220B2 (Augusta University Research Institute, Inc., priority 2020, dated 2023)
